The record followed here is patent US7674792B2, “5(Z)-5-(6-quinoxalinylmethylidene)-2-[2,6-dichlorophenyl)amino]-1,3-thiazol-4(5H)-one” (GlaxoSmithKline LLC, priority 2005, dated 2010).

A short description of data set [1]: oral blood exposure (DNAUC) in rats. It counts as in vivo, male Sprague-Dawley rats. Details: unit not given here. The note with it: sodium salt, oral gavage, dose ~1-4 mg/kg, 50% PEG-400, 10% ethanol, 40% of 40% (w/v) aqueous Encapsin. As to the method: Blood (120 microliters) was sampled at the following time intervals: 0, 20, 40, 60,120,180, 240, 360, 480, and 1440 min. […] The oral exposures of the sodium salt of Compound B and the sodium salt of Compound C were quantified by the same method.

Data set [2] in a line: bioavailability in the Beagle dog. It counts as in vivo.
A short description of data set [3]: physical and chemical stability / hygroscopicity of the crystalline compound. It counts as physicochemical.
Data set [4] in a line: solubility in pH 7.4 phosphate buffer by HPLC. The note with it: 25 °C, aqueous buffer; sodium salt; pH 7.4, 0.05M phosphate buffer; maximum total concentration 200 uM; 25 deg; read-out: Solvent Solubility at 25 deg, Water pH 7.4. The class given is physicochemical. As to the method:
The solubility of each compound was determined as follows: two samples are prepared for each compound. One (the standard sample) contains the compound at a fixed concentration of 20 uM in an aqueous/organic mixed solvent cocktail. The other (the test sample) contains the compound at a maximum total concentration of 200 uM in pH 7.4, 0.05M phosphate buffer. The test sample is spun for 15 minutes to remove any undissovled solid. HPLC analyses are performed on these samples. The relative peak areas are used for computing the solubility. The sodium salt of each compound was used for the comparison.

Counter-ions that a name gives are not always drawn.

One may read the solubility as the concentration that dissolves in the medium under given conditions.

Take `O=C1NC(=Nc2ccccc2Cl)S/C1=C\c1ccc2nccnc2c1` [Compound C · Na, 2-(2-chloro-phenylimino)-5-(quinoxalin-6-ylmethylene)-thiazolidin-4-one sodium salt]: the “Oral DNAUC rats (Sprague-Dawley)” value in data set [1] was 0.34.
For `O=C1NC(=Nc2c(Cl)cccc2Cl)S/C1=C\c1ccc2nccnc2c1` [Compound D, (5Z)-5-(6-quinoxalinylmethylidene)-2-[(2,6-dichlorophenyl)amino]-1,3-thiazol-4(5H)-one meglumine], the bioavailability result in data set [2] is “demonstrated bioavailability”. In data set [3], the hygroscopicity result is “non-hygroscopic”; the “physical and chemical stability” value is “physically and chemically stable”.
`O=C1NC(=Nc2c(Cl)cccc2Cl)S/C1=C\c1ccc2ncccc2c1` [Compound B · Na, 2-(2,6-dichloro-phenylimino)-5-(quinolin-6-ylmethylene)-thiazolidin-4-one sodium salt, reference compound]: the “Oral DNAUC rats (Sprague-Dawley)” value in data set [1] worked out at 0.49. In data set [4], the solubility came to 6 µM.
For `O=C1NC(=Nc2c(Cl)cccc2Cl)S/C1=C\c1ccc2nccnc2c1` [Compound A · Na, (5Z)-5-(6-quinoxalinylmethylidene)-2-[(2,6-dichlorophenyl)amino]-1,3-thiazol-4(5H)-one sodium salt], the solubility in data set [4] was found to be 31 µM.
